Experimental data as given in PubChem BioAssay (NCI).
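1) Cells in 96-well plates. 2) Compound, 48 h, 5 concentrations. 3) Linear interpolation between surrounding doses. 4) Unreached endpoint = highest concentration. The concentration for 50% growth inhibition is given as GI50. TGI denotes the concentration required for complete inhibition of growth.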

Tests used:
Test in all cases: NCI tumour cell line growth inhibition, 48 h
BT-549 breast = system: BT-549 breast
DU-145 prostate = system: DU-145 prostate
HCC-2998 colon = system: HCC-2998 colon
IGROV1 ovarian = system: IGROV1 ovarian
KM12 colon = system: KM12 colon
OVCAR-4 ovarian = system: OVCAR-4 ovarian
RPMI-8226 leukemia = system: RPMI-8226 leukemia
RXF 393 renal = system: RXF 393 renal
SF-295 CNS = system: SF-295 CNS
SK-OV-3 ovarian = system: SK-OV-3 ovarian

Structure (SMILES) | TGI (BT-549 breast) [µM] | TGI (DU-145 prostate) [µM] | TGI (HCC-2998 colon) [µM] | TGI (IGROV1 ovarian) [µM] | TGI (KM12 colon) [µM] | TGI (OVCAR-4 ovarian) [µM] | TGI (RPMI-8226 leukemia) [µM] | TGI (RXF 393 renal) [µM] | TGI (SF-295 CNS) [µM] | TGI (SK-OV-3 ovarian) [µM] | GI50 (HCC-2998 colon) [µM] | GI50 (KM12 colon) [µM] | GI50 (SF-295 CNS) [µM] | GI50 (SK-OV-3 ovarian) [µM]
O=CC(O)C(O)C(O)C(O)COC(=O)NCCCCC(=O)C(F)(F)C(F)(F)C(F)(F)C(F)(F)C(F)(F)C(F)(F)C(F)(F)F (stereo not given) | 33.9 | > 100 | 60.4 | > 100 | 46.4 | > 100 | > 100 | 62.4 | 59.3 | 56.4 |  |  |  | 
CC(C)(C)c1cc(OCc2nnc3sc(Cc4ccccc4)nn23)c(Cl)cc1OCc1nnc2sc(Cc3ccccc3)nn12 | 96.9 | > 100 | 20.9 | 52.4 | 57.2 | > 100 | > 100 | 38.8 | > 100 | > 100 |  |  |  | 
Cc1cc(C)c2c(c1)C/C(=C\c1cccc(C)c1C(=O)O)C2=O | > 100 | > 100 | > 100 | > 100 | > 100 | > 100 | > 100 | > 100 | > 100 |  |  |  |  | 
COc1cc(S(=O)(=O)Nc2ccc(-c3csc(N4C(=O)C(Cl)C4c4ccccc4O)n3)cc2)ccc1Cl (stereo not given) | > 100 | 66.6 | 38.5 | 56.3 | > 100 | 70 | 83.9 | 52.6 | > 100 | > 100 |  |  |  | 
CCOC(=O)CCc1cn2cc(Br)nc(OC)c2n1 | > 100 | > 100 | > 100 | > 100 | > 100 | > 100 | > 100 | > 100 | > 100 | > 100 |  |  |  | 
c1ccc2c[n+](CCCC[n+]3ccc4ccccc4c3)ccc2c1 | > 100 | > 100 | > 100 | > 100 | > 100 | > 100 | > 100 | > 100 | > 100 | > 100 |  |  |  | 
O=[N+]([O-])c1ccc(N2N=C(c3c(O)ccc4ccccc34)CC2c2ccc(Cl)cc2)c([N+](=O)[O-])c1 (stereo not given) | > 100 | > 100 | > 100 | > 100 | 45.5 | > 100 | > 100 | 73.5 | 39.1 | > 100 |  |  |  | 
CSc1nnc(SCc2nn3c(=O)cc(C)nc3s2)s1 | > 100 | > 100 | > 100 | > 100 | > 100 | > 100 | > 100 | > 100 | > 100 | > 100 |  |  |  | 
[N-]=[N+]=Nc1nc2ccccc2c(N=[N+]=[N-])c1Cl | 89.6 | > 100 | > 100 | > 100 | > 100 | > 100 | > 100 | > 100 | > 100 | > 100 |  |  |  | 
O=c1[nH]n(CCc2ccccc2CCl)c2ccc([N+](=O)[O-])cc12 | > 100 | > 100 | > 100 | > 100 | > 100 | 92 | > 100 | > 100 | > 100 |  |  |  |  | 
COc1cccc(NC(=O)CC(=O)n2nc(-c3ccccc3)c(N=Nc3ccc(Cl)cc3)c2-c2ccccc2)c1 | 58.6 | > 100 | 64.5 | > 96.4 | > 81.9 | > 100 | > 100 | 75.9 | > 88.8 | > 79.9 |  |  |  | 
C=CC(C)(C)/C=C/c1ccc(O)cc1 | > 100 | > 100 | 79.9 | > 100 | > 100 | > 100 | 70.1 | > 100 | > 100 | > 100 |  |  |  | 
CCCC1=C(OC)C(=O)c2c(C)cc(Cl)nc2C1=O | 26.5 | 28.6 | 20.2 | 30.3 | 18.1 | 19.5 | 5.98 | 20.2 | 31.9 | 31 |  |  |  | 
Oc1c(Cl)cc2cc1-c1cc(cc(Cl)c1O)CCc1c(cc(Cl)c(O)c1Cl)-c1cc(Cl)c(c(Cl)c1O)/C=C\2 | > 50 | 16.1 | 13.9 | 18.3 | 15.1 | 24 | > 50 | > 50 |  | 18 |  |  |  | 
NC1CCCCC1NCCNC1CCCCC1N (stereo not given) | > 100 | > 100 | 81.7 | > 100 | > 100 | > 100 | > 100 | > 100 | > 100 | > 100 |  |  |  | 
Cc1cc2c(c(C(=O)NCC(=O)O)c1)Oc1c(cc(C)cc1C(=O)NCC(=O)O)S2 | > 100 | > 100 | > 100 | > 100 | > 100 | > 100 | > 100 | > 100 | > 100 | > 100 |  |  |  | 
Cc1ccc(S(=O)(=O)OCCC2CN(C(=O)OCc3ccccc3)C(C)(C)O2)cc1 (stereo not given) | 5.97 | > 100 | 72.7 | > 100 | 12.4 | > 100 | 32.4 | > 100 | > 100 | > 100 |  |  |  | 
O=C1C(N2CCN(CCOCCO)CC2)=C(Cl)C(=O)c2ncccc21 | 8.33 | > 100 | > 100 | 31.4 | > 100 | 34.8 | 47.8 | 35.1 | > 100 | > 100 | > 100 | > 100 | > 100 | > 100
O=C1c2ccccc2C2(c3ccc(F)cc3)NCCN12 (stereo not given) | > 100 | > 100 | > 100 | > 100 | > 100 | > 100 | > 100 | > 100 | > 100 | > 100 |  |  |  | 
Cc1nc(C)c(N2CCN(CN)CC2)c(=O)[nH]1 | > 100 | > 100 | > 100 | > 100 | > 100 | > 100 | > 100 | > 100 | > 100 | > 100 |  |  |  | 
CC(OP(=O)(O)O)C(N)C(=O)O (stereo not given) | > 100 | > 100 | > 100 | > 100 | > 100 | > 100 | > 100 | > 100 | > 100 | > 100 |  |  |  | 
COc1ccc(OC)c2c(C)ccnc12 | > 100 | > 100 | > 100 | > 66.4 | > 100 | > 71 | > 100 | > 100 | 95.3 | > 100 |  |  |  | 
O=C1C=CC(=O)c2c(O)c(N3CCOCC3)c(Cl)c(O)c21 | 0.329 | 2.93 | 3.16 | 1.21 | 3.32 | 0.663 | > 10 | 0.464 | 3.21 | 6.22 |  |  |  | 
CCOC(=O)c1c(N2CCCC2)[nH]c(=O)c(C(c2ccc(N(C)C)cc2)c2c(O)c(C(=O)OCC)c(N3CCCC3)[nH]c2=O)c1O | > 100 | > 100 | > 100 |  | > 100 | > 100 | > 100 | > 100 | > 100 | > 100 |  |  |  | 
CCOC(=O)c1cc2c3c(c(C(C)=O)c(OC)c2[nH]1)N(C(=O)CC)CC3 | 47.1 | 29.6 | 76.5 | 30 | 26.3 | 40.9 | 26.2 | 37.2 | 39.1 | > 100 |  |  |  | 
O=c1cc(-c2ccccc2)oc2c1ccc1[nH]c3ccccc3c(=O)c12 | > 100 | > 100 | > 100 | > 100 | > 100 | > 100 | > 100 | > 100 | > 100 | > 100 |  |  |  | 
